# Assay results reported in US20250000874A1, “BACTERIAL METABOLITES AND THEIR USE IN REDUCING INFLAMMATION” (LOYOLA UNIVERSITY OF CHICAGO, priority 2023, published 2025).
# “Also recorded” adds a separate entry of the source.
# Columns and labels:
# Raw 264.7 Cells = experiment: JE on TNF-α and IL-6 production by Raw 264.7 cells upon TLR agonists; type: cell-based, mouse; conditions: for decrease in TNF-α production: vs untreated macrophages
# Procedure: (§1) FIG. 13. The Effect of JE on TNF-α Production by Raw 264.7 Cells Upon Stimulation with TLR Agonists. Macrophages were incubated overnight with JE at a concentration of 50 μM at t 37° C., 5% CO2. The following day, the macrophages were stimulated with 10 ng/ml of LPS, 1 μg/ml of FLG-St, 3 μg/ml of PAM-3csk, 1 μM of ODN and 20 μg/ml of Poly: IC for 3 hours. Supernatants were collected, and TNF-α was measured by ELISA. The data are presented as mean±SEM (n=6). *p<0.05; **p<0.01; ***p<0.001. One of three experiments is shown.
# FIG. 14. The Effect of JE on TNF-α Production by Raw 264.7 Cells Upon Stimulation with TLR Agonists. Macrophages were incubated overnight with JE at a concentration of 50 μM at 37° C., 5% CO2. The following day, the macrophages were stimulated with 1 μg/ml of FSL-1 2 μg/ml of Imiquimod for 3 hours. Supernatants were collected and TNF-α was measured by ELISA. Data are presented as mean±SEM (n=6). *p<0.05; **p<0.01; ***p <0.001. One of three experiments is shown.
# as §1, with “15.” for “13.”, “IL-6” for “TNF-α”, “TLR agonists at the same concentrations that I used” for “10 ng/ml of LPS, 1 μg/ml of FLG-St, 3 μg/ml of PAM-3csk, 1 μM of ODN and 20 μg/ml of Poly: IC”, “TNF-α induction.” for “3 hours.”
# Murine macrophages, both RAW 264.7 macrophages and bone marrow-derived macrophages (BMDMs), were seeded and then pretreated overnight with the metabolite JE. The following day, the macrophages were stimulated with one of TLR agonists, including LPS, FLA-ST, ODN, Pam3SCK4, Poly: IC LMW, FSL, and Imiquimod for 3 hours, then the production of TNF-α, and IL-6 in the culture supernatants was measured by ELISA.
# [1] = system: IC-21 murine peritoneal macrophages; experiment: Toxicity assay, Cell Counting Kit-8 viability; type: cell-based, mouse; conditions: 37° C. two days, CCK-8
# Procedure: FIG. 10. […] IC-21 murine peritoneal macrophages were seeded at a density of 2.0×10^4 per well in a 96-well plate. Differing concentrations of compound JE ranging from […] were diluted in DMSO and added to the appropriate wells. Cells were incubated at 37° C. for 48 hours. After the incubation period, Cell Counting Kit-8 (Sigma-Aldrich) was used for quantification of viable cells. CCK-8 solution was added to each well and the plate was incubated at 37° C. for two hours. Levels of water-soluble tetrazolium salt reduced to formazan were then measured at a wavelength of 450 nm. Cell viability was found as a percentage by dividing each absorbance value by the negative control.
# To test if JE has any toxicity, we first incubated murine macrophages with JE at different concentrations at 37° C. for two days, and determined viability of the cells. […] Further we injected the JE at 50 μM twice daily via I.P. for 3 or 5 days and then determined ALT levels in sera and examined the morphology in key organs, liver, kidney, spleen, intestines etc.
# [2] = system: human corneal epithelial cells (HCECs); experiment: JE on TLR5 agonist (flagellin)-induced IL-6 in HCECs; type: cell-based; conditions: JE 50 μM overnight, flagellin 6 or 24 hours, ELISA
# Procedure: FIG. 11. Probiotic bacteria metabolite JE inhibits TLR5 agonist-induced IL-6 in HCECs. HCECs were pretreated with 50 µM JE overnight and then stimulated with 0.1 μg/ml flagellin for the indicated time. The effect of TLR5 agonist (flagellin) on IL-6 secretion were measured in cell culture supernatants by ELISA. *, P<0.05.
# To test if JE could be used as a therapeutic agent, we tested its effects on a dry eye disease model. Dry eye disease is characterized by inflammation in ocular surface. First, we tested if JE can inhibit production of pro-inflammatory cytokine IL-6 by corneal epithelial cells stimulated by TLR5 agonist flagellin. Thus, SV 40 immortalized human corneal epithelial cells (HCECs) were with JE at 50 μM overnight and they are subsequently exposed to TLR5 agonists (flagellin isolated from Pseudomonas aeruginosa) for 6 or 24 hours. The cell culture supernatants were collected and used for ELISA to determine the concentrations of IL-6. […] Probiotic bacteria-derived metabolite (JE) suppressed the TLR5 agonist-induced IL-6 production (FIG. 11).
# [3] = system: human corneal epithelial cells (HCECs); experiment: MQ on IL-6 production in HCECs in response to TLR agonists; type: cell-based; conditions: for production and secretion of IL6: MQ 50 μM overnight
# Procedure: FIG. 26. MQ Reduces IL-6 Response to Toll 3 and Toll 5 Agonist. HCECs were cultured at a uniform density and allowed to adhere. Cells were then incubated overnight in MQ at a concentration of […] at 37° C. The following day, the HCECs were stimulated with FLA at a concentration of 100 ng/ml or P (I:C) at 500 μg/mL for four hours. Supernatants were collected and IL-6 concentrations were determined via ELISA.
# To investigate the effects of MQ on cytokine activity, human corneal epithelial cells (HCECs) were stimulated with various TLR agonists and the production of cytokines was measured via ELISA. HCECs were seeded at a density of 2×10^5 cells/well and were treated overnight with MQ at a concentration of 50 μM and the following day they were stimulated with Flagellin (FLA) at 100 ng/ml or Poly (I:C) at a concentration of 500 μg/ml. After 4 hours, supernatant was collected and the concentration of IL-6 was determined via ELISA.
# The effects of MQ on various other TLR pathways including: TLR 1/2 (PAM3CSK4), TLR 2/6 (FSL) TLR 4 (Lipopolysaccharide), TLR 7 (Imiquimod), and TLR 9 (ODN2006) was also investigated.
# [4] = JE 50 μM overnight, TLR agonists 3 hours, vs media with TLR agonists
Molecule,"decrease in TNF-α production (Raw 264.7 Cells; JE 50 μM overnight, TLR 1/2 agonist PAM-3CSK) [fold]","TNF-α secretion (Raw 264.7 Cells; JE 50 μM overnight, TLR2/6 agonist FSL-1)","TNF-α production (Raw 264.7 Cells; JE 50 μM overnight, TLR4 agonist LPS)","decrease in TNF-α production (Raw 264.7 Cells; JE 50 μM overnight, TLR 5 agonist FLG-ST) [fold]","TNF-α production (Raw 264.7 Cells; JE 50 μM overnight, TLR7 agonist Imiquimod)",production of IL-6 (Raw 264.7 Cells; [4]),production of TNF-α (Raw 264.7 Cells; [4]),"TNF-α secretion (Raw 264.7 Cells; JE 50 μM overnight, TLR-3 agonist Poly: IC LMW)","decrease in IL-6 secreted (Raw 264.7 Cells; JE pretreatment, LPS, relative to untreated macrophages) [fold]",viability of the cells ([1]; JE 50 μM or below),viability of the cells ([1]; JE >100 μM),TLR5 agonist-induced IL-6 production [2],production and secretion of IL6 ([3]; Flagellin (FLA) 100 ng/ml 4 hours),production and secretion of IL6 ([3]; Poly (I:C) 500 μg/ml 4 hours),"production of IL-6 ([3]; MQ alone, 50 μM overnight, no TLR agonist)","cytokine production, other TLR pathways ([3]; PAM3CSK4, FSL, Lipopolysaccharide, Imiquimod, ODN2006, various concentrations)"
"CC(=O)O[C@@H]1CC[C@H]2[C@H]3CC[C@H]4CC(F)(F)CC[C@]4(C)[C@H]3CC[C@]12C [JE, 3,3-Difluoro-5-alpha-androstan-17-beta-yl acetate]",4,completely abolished,reduced,4,reduced,significantly reduced,significantly reduced,completely abolished,4,high viability; also recorded: did not show significant reduction,reduced the viability,suppressed,,,,
Prednicarbate [MQ],,,,,,,,,,,,,reduced,reduced,not found to increase,did not exhibit any significant inhibitory effects
